{"source": "patent US12460243B2", "about": "“Mass spectrometry determination of the sensitivity or resistance of bacteria to an antibiotic” (priority 2019, dated 2025)", "test_system": "Klebsiella pneumoniae", "test": "MALDI-TOF detection of released characteristic proteins, 10 min at 50° C., filtration (examples V, VI)", "assay_type": "cell-based", "details": "colistin 2.5 mg/ml, 10 min 50° C.", "protocol": "The tests were carried out using the following steps: • preparing a suspension of microorganism at 2 McF in water (suspension medium, bioMérieux reference 70700), • preparing a solution of colistin sulfate (Sigma reference C4461) at a concentration of 2× in pure water (taking into account the colistin titer indicated by the manufacturer).\nThe proteins characteristic of the species Klebsiella pneumoniae are the DNA binding protein H-NS, the ribosomal proteins L29, L31, L34 and US9, the cold shock protein containing a CsbD domain (CsbD domain-containing protein), and the uncharacterized proteins with m/z 6290 and 8308. These proteins are characterized respectively by the peaks at 7705 (DNA binding protein H-NS), 7274 (L29), 7743 (L31), 5381 (L34), 7384 (US9), 8309 (CsbD), more or less 1000 parts per million (ppm). For their part, the hypothetical proteins are characterized by peaks at 6290 and […], more or less 1000 parts per million (ppm).\nIn the context of this example, the tests were carried out with the method of the present invention to determine the sensitivity or resistance of several bacteria of several strains such as in example V and comprising the following steps: • measuring the intensity of each peak observed, • finding a ratio between the sum of the intensities of the protein peaks of the microorganism and at least 1 peak of colistin. • determining the status, resistant or sensitive to colistin, as a function of the sum of the ratios obtained and of a threshold fixed for each species. • a resistant microorganism will have a low ratio and a sensitive microorganism will have a high ratio.\nThe K. pneumoniae strains KP S10-1, KP S10-2, KP S15-1, KP S15-2, KP R9-1, KP R9-2, KP R16-1 and KP R16-2 are also studied and the proteins characteristic of the species K. pneumoniae are analyzed. These characteristic proteins are the DNA binding protein H-NS, the ribosomal proteins L29, L31, L34 and US9, the cold shock protein containing a CsbD domain (CsbD domain-containing protein), and the uncharacterized proteins with m/z 6290 and 8308.", "note": "Bridge positions count the residues as written; N and C are the ends. Square brackets hold non-standard residues; d marks the D form. Peptide text beside a SMILES is read from it. * marks the point of attachment. Heptanoyl(6-Me) = CC(C)CCCCC(=O)*; Dab = NCC[C@H](N)C(=O)O"}
{"smiles": "CC(C)CCCCC(=O)N[C@@H](CCN)C(=O)N[C@H](C(=O)N[C@@H](CCN)C(=O)N[C@H]1CCNC(=O)[C@H]([C@@H](C)O)NC(=O)[C@H](CCN)NC(=O)[C@H](CCN)NC(=O)[C@H](CC(C)C)NC(=O)[C@@H](CC(C)C)NC(=O)[C@H](CCN)NC1=O)[C@@H](C)O", "note": "[colistin] ({Heptanoyl(6-Me)}-[Dab]T[Dab][Dab][Dab][dL]L[Dab][Dab]T; lactam 4-C)", "values": [{"measurement": "Aire sous la courbe des pics observés, 6290", "setting": "strain KP R9-1", "value": 0.00, "unit": "unité arbitraire"}, {"measurement": "Aire sous la courbe des pics observés, 8308", "setting": "strain KP R9-1", "value": 0, "unit": "unité arbitraire"}, {"measurement": "Aire sous la courbe des pics observés, CsbD domain-containing protein", "setting": "strain KP R9-1", "value": 0, "unit": "unité arbitraire"}, {"measurement": "Aire sous la courbe des pics observés, DNA binding protein H-NS", "setting": "strain KP R9-1", "value": 0.00, "unit": "unité arbitraire"}, {"measurement": "Aire sous la courbe des pics observés, Protéine ribosomique 50S L29", "setting": "strain KP R9-1", "value": 0, "unit": "unité arbitraire"}, {"measurement": "Aire sous la courbe des pics observés, Protéine ribosomique 50S L31", "setting": "strain KP R9-1", "value": 0, "unit": "unité arbitraire"}, {"measurement": "Aire sous la courbe des pics observés, Protéine ribosomique 50S L34", "setting": "strain KP R9-1", "value": 0, "unit": "unité arbitraire"}, {"measurement": "Aire sous la courbe des pics observés, US9", "setting": "strain KP R9-1", "value": 0, "unit": "unité arbitraire"}, {"measurement": "Ratio par protéine 6290/Colistine", "setting": "strain KP R9-1", "value": 0.00}, {"measurement": "Ratio par protéine 8308/Colistine", "setting": "strain KP R9-1", "value": 0.00}, {"measurement": "Ratio par protéine CsbD/Colistine", "setting": "strain KP R9-1", "value": 0.00}, {"measurement": "Ratio par protéine DNA BP H-NS/Colistine", "setting": "strain KP R9-1", "value": 0.00}, {"measurement": "Ratio par protéine L29/Colistine", "setting": "strain KP R9-1", "value": 0.00}, {"measurement": "Ratio par protéine L31/Colistine", "setting": "strain KP R9-1", "value": 0.00}, {"measurement": "Ratio par protéine L34/Colistine", "setting": "strain KP R9-1", "value": 0.00}, {"measurement": "Ratio par protéine US9/Colistine", "setting": "strain KP R9-1", "value": 0.00}, {"measurement": "Somme des ratios", "setting": "strain KP R9-1", "value": 0.00}, {"measurement": "Aire sous la courbe des pics observés, 6290", "setting": "strain KP R9-2", "value": 0.00, "unit": "unité arbitraire"}, {"measurement": "Aire sous la courbe des pics observés, 8308", "setting": "strain KP R9-2", "value": 0, "unit": "unité arbitraire"}, {"measurement": "Aire sous la courbe des pics observés, CsbD domain-containing protein", "setting": "strain KP R9-2", "value": 0, "unit": "unité arbitraire"}, {"measurement": "Aire sous la courbe des pics observés, DNA binding protein H-NS", "setting": "strain KP R9-2", "value": 89, "unit": "unité arbitraire"}, {"measurement": "Aire sous la courbe des pics observés, Protéine ribosomique 50S L29", "setting": "strain KP R9-2", "value": 0, "unit": "unité arbitraire"}, {"measurement": "Aire sous la courbe des pics observés, Protéine ribosomique 50S L31", "setting": "strain KP R9-2", "value": 0, "unit": "unité arbitraire"}, {"measurement": "Aire sous la courbe des pics observés, Protéine ribosomique 50S L34", "setting": "strain KP R9-2", "value": 0, "unit": "unité arbitraire"}, {"measurement": "Aire sous la courbe des pics observés, US9", "setting": "strain KP R9-2", "value": 0, "unit": "unité arbitraire"}, {"measurement": "Ratio par protéine 6290/Colistine", "setting": "strain KP R9-2", "value": 0.00}, {"measurement": "Ratio par protéine 8308/Colistine", "setting": "strain KP R9-2", "value": 0.00}, {"measurement": "Ratio par protéine CsbD/Colistine", "setting": "strain KP R9-2", "value": 0.00}, {"measurement": "Ratio par protéine DNA BP H-NS/Colistine", "setting": "strain KP R9-2", "value": 0.11}, {"measurement": "Ratio par protéine L29/Colistine", "setting": "strain KP R9-2", "value": 0.00}, {"measurement": "Ratio par protéine L31/Colistine", "setting": "strain KP R9-2", "value": 0.00}, {"measurement": "Ratio par protéine L34/Colistine", "setting": "strain KP R9-2", "value": 0.00}, {"measurement": "Ratio par protéine US9/Colistine", "setting": "strain KP R9-2", "value": 0.00}, {"measurement": "Somme des ratios", "setting": "strain KP R9-2", "value": 0.11}, {"measurement": "Aire sous la courbe des pics observés, 6290", "setting": "strain KP R16-1", "value": 0.00, "unit": "unité arbitraire"}, {"measurement": "Aire sous la courbe des pics observés, 8308", "setting": "strain KP R16-1", "value": 0, "unit": "unité arbitraire"}, {"measurement": "Aire sous la courbe des pics observés, CsbD domain-containing protein", "setting": "strain KP R16-1", "value": 0, "unit": "unité arbitraire"}, {"measurement": "Aire sous la courbe des pics observés, DNA binding protein H-NS", "setting": "strain KP R16-1", "value": 0.00, "unit": "unité arbitraire"}, {"measurement": "Aire sous la courbe des pics observés, Protéine ribosomique 50S L29", "setting": "strain KP R16-1", "value": 0, "unit": "unité arbitraire"}, {"measurement": "Aire sous la courbe des pics observés, Protéine ribosomique 50S L31", "setting": "strain KP R16-1", "value": 0, "unit": "unité arbitraire"}, {"measurement": "Aire sous la courbe des pics observés, Protéine ribosomique 50S L34", "setting": "strain KP R16-1", "value": 0, "unit": "unité arbitraire"}, {"measurement": "Aire sous la courbe des pics observés, US9", "setting": "strain KP R16-1", "value": 0, "unit": "unité arbitraire"}, {"measurement": "Ratio par protéine 6290/Colistine", "setting": "strain KP R16-1", "value": 0.00}, {"measurement": "Ratio par protéine 8308/Colistine", "setting": "strain KP R16-1", "value": 0.00}, {"measurement": "Ratio par protéine CsbD/Colistine", "setting": "strain KP R16-1", "value": 0.00}, {"measurement": "Ratio par protéine DNA BP H-NS/Colistine", "setting": "strain KP R16-1", "value": 0.00}, {"measurement": "Ratio par protéine L29/Colistine", "setting": "strain KP R16-1", "value": 0.00}, {"measurement": "Ratio par protéine L31/Colistine", "setting": "strain KP R16-1", "value": 0.00}, {"measurement": "Ratio par protéine L34/Colistine", "setting": "strain KP R16-1", "value": 0.00}, {"measurement": "Ratio par protéine US9/Colistine", "setting": "strain KP R16-1", "value": 0.00}, {"measurement": "Somme des ratios", "setting": "strain KP R16-1", "value": 0.00}, {"measurement": "Aire sous la courbe des pics observés, 6290", "setting": "strain KP R16-2", "value": 0.00, "unit": "unité arbitraire"}, {"measurement": "Aire sous la courbe des pics observés, 8308", "setting": "strain KP R16-2", "value": 0, "unit": "unité arbitraire"}, {"measurement": "Aire sous la courbe des pics observés, CsbD domain-containing protein", "setting": "strain KP R16-2", "value": 0, "unit": "unité arbitraire"}, {"measurement": "Aire sous la courbe des pics observés, DNA binding protein H-NS", "setting": "strain KP R16-2", "value": 0.00, "unit": "unité arbitraire"}, {"measurement": "Aire sous la courbe des pics observés, Protéine ribosomique 50S L29", "setting": "strain KP R16-2", "value": 0, "unit": "unité arbitraire"}, {"measurement": "Aire sous la courbe des pics observés, Protéine ribosomique 50S L31", "setting": "strain KP R16-2", "value": 0, "unit": "unité arbitraire"}, {"measurement": "Aire sous la courbe des pics observés, Protéine ribosomique 50S L34", "setting": "strain KP R16-2", "value": 0, "unit": "unité arbitraire"}, {"measurement": "Aire sous la courbe des pics observés, US9", "setting": "strain KP R16-2", "value": 0, "unit": "unité arbitraire"}, {"measurement": "Ratio par protéine 6290/Colistine", "setting": "strain KP R16-2", "value": 0.00}, {"measurement": "Ratio par protéine 8308/Colistine", "setting": "strain KP R16-2", "value": 0.00}, {"measurement": "Ratio par protéine CsbD/Colistine", "setting": "strain KP R16-2", "value": 0.00}, {"measurement": "Ratio par protéine DNA BP H-NS/Colistine", "setting": "strain KP R16-2", "value": 0.00}, {"measurement": "Ratio par protéine L29/Colistine", "setting": "strain KP R16-2", "value": 0.00}, {"measurement": "Ratio par protéine L31/Colistine", "setting": "strain KP R16-2", "value": 0.00}, {"measurement": "Ratio par protéine L34/Colistine", "setting": "strain KP R16-2", "value": 0.00}, {"measurement": "Ratio par protéine US9/Colistine", "setting": "strain KP R16-2", "value": 0.00}, {"measurement": "Somme des ratios", "setting": "strain KP R16-2", "value": 0.00}, {"measurement": "Aire sous la courbe des pics observés, 6290", "setting": "strain KP S10-1", "value": 837, "unit": "unité arbitraire"}, {"measurement": "Aire sous la courbe des pics observés, 8308", "setting": "strain KP S10-1", "value": 209, "unit": "unité arbitraire"}, {"measurement": "Aire sous la courbe des pics observés, CsbD domain-containing protein", "setting": "strain KP S10-1", "value": 0, "unit": "unité arbitraire"}, {"measurement": "Aire sous la courbe des pics observés, DNA binding protein H-NS", "setting": "strain KP S10-1", "value": 374, "unit": "unité arbitraire"}]}
